The results in this text go back to patent publication US10071974B2, “Morpholine and 1,4-oxazepane amides as somatostatin receptor subtype 4 (SSTR4) agonists” (Boehringer Ingelheim International GmbH, priority 2014, dated 2018).

Some results are limits rather than exact numbers.

Series [1] deals with human Somatostatin 4 Receptor (SSTR4) (Homo sapiens (Human), UniProt P31391). The experiment in a line: cAMP assay with human somatostatin 4 receptor (hSSTR4 expressing H4 cells). It counts as cell-based. The following applies: read-out: SSTR4 agonism EC50. In general terms: cAMP levels reflect the balance of adenylyl cyclase and phosphodiesterase activity.
human Somatostatin 4 Receptor (SSTR4), sequence (P31391 whole entry): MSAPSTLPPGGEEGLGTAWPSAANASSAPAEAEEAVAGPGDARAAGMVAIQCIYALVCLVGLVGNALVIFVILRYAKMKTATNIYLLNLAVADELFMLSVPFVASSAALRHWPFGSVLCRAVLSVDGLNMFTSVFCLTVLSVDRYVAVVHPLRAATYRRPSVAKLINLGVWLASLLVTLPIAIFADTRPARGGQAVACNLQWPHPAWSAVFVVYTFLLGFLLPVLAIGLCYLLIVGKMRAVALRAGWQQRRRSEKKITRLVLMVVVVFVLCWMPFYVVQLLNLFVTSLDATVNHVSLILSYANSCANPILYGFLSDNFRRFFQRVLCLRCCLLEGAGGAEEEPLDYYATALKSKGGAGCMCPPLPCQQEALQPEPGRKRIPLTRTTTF
A short description of the next series: in vitro. The following applies: human, microsomes, pH 7.6.

By EC50 is commonly meant the concentration giving half of the maximal effect. Broadly, the half-life is how long it takes for the measured level to halve. A high value points to slow loss. For the compound `Cc1cccn2c(C(C)(C)NC(=O)C3CNCCOC3)ncc12` (single isomer, unassigned) [Example 117], the EC50 in series [1] is 2.6 nM. Also, in the series “in vitro”, the half-life at 1 μM is greater than 2.17 h.

In the case of `Cn1nc(C(C)(C)NC(=O)C2CNCCCO2)c2ccccc21` (racemic) [Example 23], the 50% effective concentration (EC50) in series [1] was found to be 36.5 nM. For the same compound, the half-life at 1 μM in the series “in vitro” is greater than 2.17 h.

As for `Cc1cccn2c(C(C)(C)NC(=O)C3CNCCOC3)nc(C)c12` (racemic) [Example 128], in series [1], the EC50 turned out to be 5 nM. In “in vitro”, this compound registered a half-life at 1 μM greater than 2.17 h.

For the compound `CC(C)(NC(=O)C1CNCCOC1)c1n[nH]c2c(Cl)cccc12` (single isomer, unassigned) [Example 93], the EC50 in series [1] turned out to be 1.4 nM. In addition, the half-life at 1 μM in the series “in vitro” is greater than 2.17 h.

As for `Cc1cccn2c(C(C)(C)NC(=O)C3CNCCOC3)ccc12` (single isomer, unassigned) [Example 136], the EC50 in series [1] is 3.7 nM. In addition, the half-life at 1 μM in the series “in vitro” was greater than 2.17 h.

Turning to `Cn1nc(C(C)(C)NC(=O)C2CNCCOC2)c2cccc(F)c21` (single isomer, unassigned) [Example 77], in series [1], the EC50 came out at 5.1 nM. For the same compound, the half-life at 1 μM in the series “in vitro” is greater than 2.17 h.

Turning to `Cc1cccc2c(C(C)(C)NC(=O)C3CNCCOC3)nn(C)c12` (single isomer, unassigned) [Example 85], the EC50 in series [1] was 2 nM. For the same compound, in the series “in vitro”, the half-life at 1 μM is greater than 2.17 h.

For the compound `Cc1cc2ccccc2c(C(C)(C)NC(=O)C2CNCCCO2)n1` (single isomer, unassigned) [Example 48], in series [1], the EC50 is 18.9 nM. Besides, in “in vitro”, the half-life at 1 μM was greater than 2.17 h.

For the compound `Cc1cccc2c(C(C)(C)NC(=O)[C@@H]3CNCCO3)n[nH]c12` [Example 57], in series [1], the EC50 is 2.4 nM. The half-life at 1 μM in “in vitro” is greater than 2.17 h.

In the series “in vitro”, `Cc1cc2ccccc2c(C(C)(C)NC(=O)[C@@H]2CNCCO2)n1` [Example 43] showed a half-life at 1 μM of 1.83 h.

As for `CC(C)(NC(=O)[C@@H]1CNCCO1)c1ncc2c(Cl)cccn12` [Example 96], in series [1], the EC50 worked out at 13 nM. The compound also displayed a half-life at 1 μM in “in vitro” greater than 2.17 h.

`Cn1nc(C(C)(C)NC(=O)C2CNCCOC2)c2ccccc21` (racemic) [Example 20]: the 50% effective concentration (EC50) in series [1] amounted to 3.9 nM. The compound also came in with a half-life at 1 μM in the series “in vitro” greater than 2.17 h.

`Cc1cccn2c(C(C)(C)NC(=O)C3CNCCOC3)ncc12` (racemic) [Example 116]: the 50% effective concentration (EC50) in series [1] was found to be 9.3 nM. For the same compound, the half-life at 1 μM in the series “in vitro” was greater than 2.17 h.

On to `Cn1nc(C(C)(C)NC(=O)[C@@H]2CNCCO2)c2ccc(F)cc21` [Example 30], for which the EC50 in series [1] stood at 13.1 nM. This compound also registered a half-life at 1 μM in the series “in vitro” greater than 2.17 h.

Turning to `Cc1cccc2c(C(C)(C)NC(=O)C3CNCCOC3)cnn12` (single isomer, unassigned) [Example 34], in series [1], the concentration giving a half-maximal response (EC50) was determined as 5.7 nM. In the series “in vitro”, this compound yielded a half-life at 1 μM greater than 2.17 h.

Regarding `Cc1ncc(C(C)(C)NC(=O)C2CNCCOC2)c2ccccc12` (single isomer, unassigned) [Example 41], the EC50 in series [1] was 0.7 nM. The half-life at 1 μM in the series “in vitro” is greater than 2.17 h.

As for `Cn1nc(C(C)(C)NC(=O)C2CNCCOC2)c2cccc(Cl)c21` (single isomer, unassigned) [Example 82], the EC50 in series [1] turned out to be 3 nM. Also, the half-life at 1 μM in the series “in vitro” is greater than 2.17 h.

Take `CC(C)(NC(=O)C1CNCCOC1)c1ncc2c(Cl)cccn12` (single isomer, unassigned) [Example 120]: in series [1], the EC50 stood at 5.9 nM. The compound also displayed a half-life at 1 μM in “in vitro” greater than 2.17 h.

In the case of `Cc1nnc(C(C)(C)NC(=O)C2CNCCOC2)c2ccccc12` (racemic) [Example 37], the EC50 in series [1] was found to be 11.7 nM. The half-life at 1 μM in “in vitro” was greater than 2.17 h.

For the compound `Cn1nc(C(C)(C)NC(=O)C2CCNCCO2)c2ccccc21` (single isomer, unassigned) [Example 27], the EC50 in series [1] was 55.8 nM. In the series “in vitro”, this compound had a half-life at 1 μM greater than 2.17 h.

With `Cc1cccc2c(C(C)(C)NC(=O)C3CNCCOC3)noc12` (single isomer, unassigned) [Example 55], the EC50 in series [1] is 2.9 nM. Moreover, the half-life at 1 μM in the series “in vitro” was greater than 2.17 h.

For `Cc1cc2ccccc2c(C(C)(C)NC(=O)C2CNCCOC2)n1` (racemic) [Example 44], the half-maximal effective concentration (EC50) in series [1] was found to be 7 nM. The same compound had a half-life at 1 μM in the series “in vitro” greater than 2.17 h.

For `Cc1cccn2c(C(C)(C)NC(=O)C3CNCCCO3)ncc12` (single isomer, unassigned) [Example 145], in series [1], the EC50 stood at 29.1 nM. In “in vitro”, this compound gave a half-life at 1 μM greater than 2.17 h.

In the case of `Cc1cc2ccccc2c(C(C)(C)NC(=O)C2CNCCCO2)n1` (single isomer, unassigned) [Example 49], in series [1], the EC50 was found to be 988 nM.

Turning to `Cc1cccn2c(C(C)(NC(=O)[C@@H]3CNCCO3)C3CC3)ncc12` (single isomer, unassigned) [Example 111], in series [1], the 50% effective concentration (EC50) came out at 290 nM.

As for `Cc1cc2ccccc2c(C(C)(C)NC(=O)C2CNCCOC2)n1` (single isomer, unassigned) [Example 46], the half-maximal effective concentration (EC50) in series [1] was 3.4 nM. The half-life at 1 μM in the series “in vitro” is greater than 2.17 h.

Take `COc1cccn2c(C(C)(C)NC(=O)C3CNCCOC3)ncc12` (single isomer, unassigned) [Example 125]: in series [1], the EC50 was determined as 16.4 nM.

Consider `Cc1cccc2c(C(C)(C)NC(=O)C3CNCCOC3)noc12` (single isomer, unassigned) [Example 56], for which, in series [1], the EC50 came out at 737 nM.

For `CC(C)(NC(=O)[C@@H]1CNCCO1)c1noc2c(F)cccc12` [Example 61], the half-maximal effective concentration (EC50) in series [1] worked out at 147 nM.

With `Cn1nc(C(C)(C)NC(=O)C2CNCCOC2)c2cccc(Cl)c21` (single isomer, unassigned) [Example 81], in series [1], the concentration giving a half-maximal response (EC50) was 152 nM.

Consider `Cn1nc(C(C)(C)NC(=O)C2CNCCOC2)c2ccccc21` (single isomer, unassigned) [Example 22], for which, in series [1], the concentration giving a half-maximal response (EC50) worked out at 192 nM.

On to `Cc1nc2ccccn2c1C(C)(C)NC(=O)[C@@H]1CNCCO1` [Example 106], for which the concentration for a half-maximal effect (EC50) in series [1] worked out at 230 nM.

As for `CC(C)(NC(=O)C1CCNCCO1)c1noc2c(F)cccc12` (racemic) [Example 68], the EC50 in series [1] came out at 628 nM.

On to `Cc1cccn2c(C(C)(C)NC(=O)C3CNCCCO3)ncc12` (single isomer, unassigned) [Example 146], for which the EC50 in series [1] came out at 1000 nM.

As to `CC(C)(NC(=O)C1CNCCOC1)c1n[nH]c2c(Cl)cccc12` (single isomer, unassigned) [Example 94], the 50% effective concentration (EC50) in series [1] came to 31 nM.

For the compound `Cc1cccn2c(C(C)(C)NC(=O)C3CNCCCO3)nc(C)c12` (single isomer, unassigned) [Example 148], the concentration for a half-maximal effect (EC50) in series [1] amounted to 93 nM.

On to `CC(C)(NC(=O)[C@@H]1CNCCO1)C1CCCCC1` [Example 7], for which the EC50 in series [1] is 2420 nM.

Turning to `Cc1ncc(C(C)(C)NC(=O)[C@@H]2CNCCO2)c2ccccc12` [Example 38], in series [1], the 50% effective concentration (EC50) is 1.3 nM. This compound showed a half-life at 1 μM in the series “in vitro” greater than 2.17 h.

As to `COc1cccn2c(C(C)(C)NC(=O)C3CNCCOC3)ncc12` (racemic) [Example 123], the EC50 in series [1] is 32.4 nM.

On to `Cc1cccn2c(C(C)(C)NC(=O)C3CCNCCO3)ncc12` (racemic) [Example 141], for which the half-maximal effective concentration (EC50) in series [1] amounted to 90.2 nM.

For `CC(C)(COc1cnccc1C(F)(F)F)NC(=O)C1CNCCOC1` (centres unmarked) [Example 4], in series [1], the EC50 is 272 nM.

On to `CC(C)(NC(=O)C1CNCCOC1)c1n[nH]c2c(F)cccc12` (racemic) [Example 88], for which the EC50 in series [1] amounted to 11.1 nM.

Take `CC(C)(NC(=O)C1CNCCOC1)c1nc2ccc(Cl)cc2[nH]1` (centres unmarked) [Example 13]: in series [1], the EC50 came to 356 nM.

`CC(C)(COc1nccc2ccccc12)NC(=O)C1CNCCOC1` (single isomer, unassigned) [Example 17]: the 50% effective concentration (EC50) in series [1] came out at 30000 nM.

For the compound `Cc1cccc2c(C(C)(C)NC(=O)C3CNCCOC3)n[nH]c12` (single isomer, unassigned) [Example 60], the half-maximal effective concentration (EC50) in series [1] worked out at 1.3 nM. The compound also came in with a half-life at 1 μM in “in vitro” greater than 2.17 h.

In the case of `CC(C)(NC(=O)C1CNCCCO1)c1noc2c(F)cccc12` (single isomer, unassigned) [Example 66], in series [1], the concentration giving a half-maximal response (EC50) was determined as 625 nM.

With `CC(C)(NC(=O)[C@@H]1CNCCO1)c1noc2c(Cl)cccc12` [Example 71], in series [1], the 50% effective concentration (EC50) worked out at 35.1 nM.

In the case of `C[C@H](NC(=O)[C@@H]1CNCCO1)c1cccc2ccccc12` [Example 10], in series [1], the EC50 was determined as 51.2 nM.

Turning to `CC(C)(NC(=O)[C@@H]1CNCCO1)c1n[nH]c2c(Cl)cccc12` [Example 91], the concentration for a half-maximal effect (EC50) in series [1] turned out to be 3.4 nM. In addition, the half-life at 1 μM in “in vitro” is greater than 2.17 h.

As for `Cn1nc(C(C)(C)NC(=O)C2CCNCCO2)c2ccccc21` (racemic) [Example 26], the EC50 in series [1] turned out to be 61.3 nM. In addition, the half-life at 1 μM in the series “in vitro” is greater than 2.17 h.

`Cc1cccn2c(C(C)(C)NC(=O)C3CNCCOC3)ccc12` (racemic) [Example 135]: the EC50 in series [1] was determined as 8.5 nM.

In the case of `Cc1cc2ccccc2c(C(C)(C)NC(=O)C2CCNCCO2)n1` (single isomer, unassigned) [Example 51], the 50% effective concentration (EC50) in series [1] came out at 42.9 nM.

Turning to `CC(C)(NC(=O)C1CNCCOC1)c1n[nH]c2c(F)cccc12` (single isomer, unassigned) [Example 89], the half-maximal effective concentration (EC50) in series [1] came out at 3.1 nM. In “in vitro”, this compound showed a half-life at 1 μM greater than 2.17 h.

For `COc1cccn2c(C(C)(C)NC(=O)C3CNCCOC3)ncc12` (single isomer, unassigned) [Example 124], the EC50 in series [1] was 1000 nM.

`Cc1cccn2c(C(C)(C)NC(=O)[C@@H]3CNCCO3)ccc12` [Example 109]: the 50% effective concentration (EC50) in series [1] was determined as 3.7 nM. This compound also showed a half-life at 1 μM in “in vitro” of 1.4 h.

On to `Cc1cccn2c(C(C)(C)NC(=O)C3CNCCOC3)ncc12` (single isomer, unassigned) [Example 118], for which the EC50 in series [1] amounted to 86.8 nM.

As to `Cc1cc2ccccc2c(C(C)(C)NC(=O)C2CCNCCO2)n1` (racemic) [Example 50], the half-maximal effective concentration (EC50) in series [1] came to 105 nM.
